These results are taken from ChEMBL document CHEMBL2074130, “Reversal of breast cancer resistance protein-mediated drug resistance by estrogen antagonists and agonists” (Mol Cancer Ther, 2003).

SMILES strings stand for the structures.

The first data set addresses T1, Broad substrate specificity ATP-binding cassette transporter ABCG2 (Homo sapiens, UniProt Q9UNQ0).
T1 sequence (Q9UNQ0 whole entry): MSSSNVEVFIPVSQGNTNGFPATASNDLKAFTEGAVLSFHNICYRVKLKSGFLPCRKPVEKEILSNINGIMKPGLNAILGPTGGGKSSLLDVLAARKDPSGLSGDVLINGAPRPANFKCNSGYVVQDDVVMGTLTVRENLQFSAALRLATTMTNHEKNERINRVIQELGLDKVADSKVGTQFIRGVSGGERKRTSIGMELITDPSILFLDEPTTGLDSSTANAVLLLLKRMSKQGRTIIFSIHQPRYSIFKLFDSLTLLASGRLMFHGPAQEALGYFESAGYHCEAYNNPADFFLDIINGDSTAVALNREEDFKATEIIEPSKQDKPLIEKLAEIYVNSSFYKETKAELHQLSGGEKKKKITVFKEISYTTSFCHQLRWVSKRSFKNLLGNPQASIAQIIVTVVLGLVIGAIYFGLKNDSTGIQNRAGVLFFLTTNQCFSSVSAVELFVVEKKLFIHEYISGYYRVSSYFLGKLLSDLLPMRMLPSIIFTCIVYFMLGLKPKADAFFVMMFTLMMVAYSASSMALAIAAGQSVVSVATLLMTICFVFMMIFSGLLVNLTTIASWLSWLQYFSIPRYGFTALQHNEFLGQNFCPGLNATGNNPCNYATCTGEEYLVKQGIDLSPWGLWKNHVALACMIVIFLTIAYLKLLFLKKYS
The experiment in a line: TP_TRANSPORTER: inhibition of topotecan uptake in BCRP-expressing K562 cells. It counts as functional, cell-based.
In the case of `C[C@]12CC[C@@H]3c4ccc(O)cc4CC[C@H]3[C@@H]1CCC2=O` [ESTRONE], the Activity entry was “inhibitor []”.

As to `CC/C(=C(/c1ccc(OCCN(C)C)cc1)c1ccc(OCc2ccccc2)cc1)c1ccccc1`, the Activity result is “inhibitor []”. For the molecule `CC/C(=C(\c1ccc(O)cc1)c1ccc(OCCN(C)C)cc1)c1ccc(OC)cc1`, the Activity entry is “inhibitor []”. Take `CC/C(=C(/c1ccc(OCCN(C)C)cc1)c1ccc(OCc2ccc([N+](=O)[O-])cc2)cc1)c1ccccc1`: the Activity result was “inhibitor []”.

In the case of `CC/C(=C(\c1ccc(O)cc1)c1ccc(OCCN(C)C)cc1)c1ccc(C(C)C)cc1` [MIPROXIFENE], the Activity result was “inhibitor []”. Take `CCC(=O)Oc1ccc(/C(CC)=C(\CC)c2ccc(OC(=O)CC)cc2)cc1` [DIETHYLSTILBESTROL DIPROPIONATE]: the Activity entry was “inhibitor []”. On to `CC/C(=C(\c1ccc(O)cc1)c1ccc(OCCNC)cc1)c1ccc(C(C)CO)cc1` (configuration not stated), for which the Activity result was “inhibitor []”. Consider `CC/C(=C(/CC)c1ccc(O)cc1)c1ccc(O)cc1` [DIETHYLSTILBESTROL], for which the Activity entry was “inhibitor []”. As for `CC/C(=C(\c1ccc(O)cc1)c1ccc(OCCN(C)C)cc1)c1ccc(OCc2ccccc2)cc1`, the Activity entry was “inhibitor []”.

Another data set has as its target T1, Broad substrate specificity ATP-binding cassette transporter ABCG2. The data set is described as follows: TP_TRANSPORTER: drug resistance in BCRP-expressing K562 cells. It counts as functional, cell-based.
As for `CCc1c2c(nc3ccc(O)cc13)-c1cc3c(c(=O)n1C2)COC(=O)[C@]3(O)CC` [7-ETHYL-10-HYDROXYCAMPTOTHECIN], the Activity result was “substrate []”. As to `CC[C@@]1(O)C(=O)OCc2c1cc1n(c2=O)Cc2cc3c(CN(C)C)c(O)ccc3nc2-1` [TOPOTECAN], the Activity entry was “substrate []”.

Take `O=C1c2c(O)ccc(O)c2C(=O)c2c(NCCNCCO)ccc(NCCNCCO)c21` [MITOXANTRONE]: the Activity entry was “substrate []”.
